Measured values as given in article PMC6576746, “Rational discovery of dual-indication multi-target PDE/Kinase inhibitor for precision anti-cancer therapy using structural systems pharmacology” (PLoS Computational Biology, 2019).

Legend:
Experiment in all cases: cells
Set-up in all cases: species or system panel of human cancer cell lines; Eurofins OncoPanel proliferation; nuclei count by high-content fluorescence imaging, 10-point dose response
[1] = system: DBTRG-05MG; details: Homo sapiens, DBTRG-05MG, 72 h, cell count, 3 days
Outline: (§1)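 Cells in RPMI 1640/10% FBS or special medium received compound the day after seeding, with a time-zero plate; 3-day incubation at 37°C, 5% CO2. Nuclei imaged by fluorescence microscopy; 10 half-log doses from 100 μM, 0.1% DMSO. EC50, IC50, GI50 and activity area (0–10) from curve fits.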

[2] = system: SCC-9; details: Homo sapiens, SCC-9, 72 h, cell count, 3 days
Outline: as §1

[3] = system: 22Rv1; details: Homo sapiens, 22Rv1, 72 h, cell count, 3 days
Outline: as §1

[4] = system: NTERA-2 cl.D1; details: Homo sapiens, NTERA-2-cl-D1, 72 h, cell count, 3 days
Outline: as §1

[5] = system: SCaBER; details: Homo sapiens, SCaBER, 72 h, cell count, 3 days
Outline: as §1

[6] = system: Jurkat; details: Homo sapiens, Jurkat, 72 h, cell count, 3 days
Outline: as §1

[7] = system: LS-174T; details: Homo sapiens, LS174T, 72 h, cell count, 3 days
Outline: as §1

[8] = system: MES-SA; details: Homo sapiens, MES-SA, 72 h, cell count, 3 days
Outline: as §1

[9] = system: HEL-92-1-7; details: Homo sapiens, HEL 92.1.7, 72 h, cell count, 3 days
Outline: as §1

[10] = system: A-704; details: Homo sapiens, A704, 72 h, cell count, 3 days
Outline: as §1

[11] = system: OE19; details: Homo sapiens, OE19, 72 h, cell count, 3 days
Outline: as §1

[12] = system: Hs 445; details: Hs 445, 72 h, cell count, 3 days
Outline: as §1

[13] = system: NCI-H508; details: Homo sapiens, NCI-H508, 72 h, cell count, 3 days
Outline: as §1

[14] = system: BV-173; details: Homo sapiens, BV-173, 72 h, cell count, 3 days
Outline: as §1

[15] = 50% of maximum possible response

C[C@@H]1CC(=O)NN=C1c1ccc(NN=C(C#N)C#N)cc1 [levosimendan]
IC50 [1, 15]: 75.6 µM
GI50 ([1]; corrected for time zero): 41.4 µM
EC50 ([1]; curve inflection point): 75.6 µM
IC50 [2, 15]: 33.6 µM
GI50 ([2]; corrected for time zero): 26.3 µM
EC50 ([2]; curve inflection point): 33.6 µM
IC50 [3, 15]: 55.6 µM
GI50 ([3]; corrected for time zero): 45.8 µM
EC50 ([3]; curve inflection point): 55.6 µM
IC50 [4, 15]: 11.8 µM
GI50 ([4]; corrected for time zero): 9.76 µM
EC50 ([4]; curve inflection point): 11.6 µM
IC50 [5, 15]: 60.4 µM
GI50 ([5]; corrected for time zero): 56.5 µM
EC50 ([5]; curve inflection point): 60.4 µM
IC50 [6, 15]: 22.1 µM
GI50 ([6]; corrected for time zero): 18.2 µM
EC50 ([6]; curve inflection point): 22.1 µM
IC50 [7, 15]: > 100 µM
GI50 ([7]; corrected for time zero): > 100 µM
EC50 ([7]; curve inflection point): > 100 µM
IC50 [8, 15]: 15.6 µM
GI50 ([8]; corrected for time zero): 13.7 µM
EC50 ([8]; curve inflection point): 15.6 µM
IC50 [9, 15]: 21.8 µM
GI50 ([9]; corrected for time zero): 17.9 µM
EC50 ([9]; curve inflection point): 21.8 µM
IC50 [10, 15]: > 100 µM
GI50 ([10]; corrected for time zero): 64.7 µM
EC50 ([10]; curve inflection point): > 100 µM
IC50 [11, 15]: > 100 µM
GI50 ([11]; corrected for time zero): 96.8 µM
EC50 ([11]; curve inflection point): > 100 µM
IC50 [12, 15]: 30.6 µM
GI50 ([12]; corrected for time zero): 21.8 µM
EC50 ([12]; curve inflection point): 26.3 µM
IC50 [13, 15]: 38.4 µM
GI50 ([13]; corrected for time zero): 33.5 µM
EC50 ([13]; curve inflection point): 38.4 µM
IC50 [14, 15]: 12 µM
GI50 ([14]; corrected for time zero): 10.1 µM
EC50 ([14]; curve inflection point): 12 µM
